Legend:
[1] = tested on: S. cerevisiae; test: Agar plate growth inhibition assay against S. cerevisiae; assay type: cell-based; conditions: S. cerevisiae on YPG agar plates, 1 μM of each compound, alone or in combination, 3-5 days at 30° C.; FIG. 8
Protocol: The inventors tested the efficacy of a combination of Colletochlorin B and azoxystrobin on the growth of S. cerevisiae. As in Example 1, Colletochlorin B was synthesised using the methodology described in WO 2013/160670 with reference to FIG. 7.
• 1. S. cerevisiae was streaked out and grown up on YPD agar plates for 3 days at 30° C. • 2. 5 mL of YPG liquid media was inoculated with S. cerevisiae from the YPD plates and grown for 3 days at 30° C. with shaking at 180 rpm to produce a cell culture. • 3. Approximately 5×10^5 cells of the S. cerevisiae were then plated out onto YPG agar plates containing 1 μM Colletochlorin B, or 1 μM azoxystrobin, or a combination of 1 μM Colletochlorin and 1 μM azoxystrobin. • 4. The plates were incubated for 3-5 days at 30° C. • 5. The degree of inhibition of fungal/yeast growth caused by the inhibitors was then assessed.
For each plate, the yeast colony grown in the centre at the top was not grown in the presence of any inhibitor acting as a negative control. However, for the plate shown in FIG. 8A, the colony shown on the lower left was grown in the presence of only 1 μM Colletochlorin B, and for the plate shown in FIG. 8B, the colony shown on the lower left was grown in the presence of only 1 μM azoxystrobin. […]

[2] = tested on: Chalara fraxinea; test: Agar plate growth inhibition assay of fungicides against fungi (Chalara fraxinea); assay type: cell-based; conditions: Chalara fraxinea on YPG agar plates, 3-5 days at 30° C.; compounds used separately or in combination
Protocol: Example 1—Assays Used to Test Fungicides Against Fungi (e.g. Chalara fraxinea)
• 2% Yeast extract • 2% Peptone • 2% D-glucose • 2% agar YPG • 2% Yeast extract • 2% Peptone • 2% Glycerol • 2% agar Fungicide Formulations
Colletochlorin B was synthesised using the methodology described in WO 2013/160670 with reference to FIG. 7. Then, 1 μM of Colletochlorin B is separately combined with […] of each of the following fungicides to produce seven different formulations:— • 1) Metalaxyl—belongs to the phenylamide fungicide family (Sukul, P. and M. Spiteller (2000) “Metalaxyl: persistence, degradation, metabolism, and analytical methods.” Rev Environ Contam Toxicol 164: 1-26); • 2) Azoxystrobin—belongs to the strobilurin family; • 3) DMI (DeMethylation Inhibitor); • 4) CuPC33—A copper based compound; • 5) Boscalid; • 6) Difenconcozole; and • 7) Pyraclostrobin. Methods • 1. Yeast strains are streaked out and grown on YPD agar plates for 3 days at 30° C. • 2. 5 mL of YPD liquid media is inoculated with a fungal strain of interest (e.g. Chalara fraxinea) and grown for 3 days at 30° C. with shaking at 180 rpm. • 3. 1 μL inoculum of the fungal strain is added to 9999 μL YPG liquid media and gently mixed. • 4. […] The degree of inhibition of fungal/yeast growth caused by the inhibitors is then assessed. […]

[3] = tested on: microbial alternative oxidase (AOX); conditions: disclosed in WO 2013/160670; cited from earlier work
[4] = tested on: cytochrome bc1 complex; conditions: disclosed in WO 2013/160670; cited from earlier work

Row | SMILES | degree of inhibition of fungal/yeast growth [1] | degree of inhibition of fungal growth [2] | inhibition of AOX [3] | inhibition of cytochrome bc1 complex [4]
1 | CO/C=C(/C(=O)OC)c1ccccc1Oc1cc(Oc2ccccc2C#N)ncn1 [Azoxystrobin, reference compound] | partial growth inhibition | partial growth inhibition |  | 
2 | CC(C)=CCC/C(C)=C/Cc1c(O)c(Cl)c(C)c(C=O)c1O [Colletochlorin B] | partial growth inhibition | partial growth inhibition | particularly effective inhibition | particularly effective inhibition

Source: patent US10334847B2, “Antifungal composition” (The University of Sussex, priority 2014, dated 2019)
